Results published in patent US11660319B2, “Compositions comprising bacterial strains” (priority 2017, dated 2023).

Legend:
[1] = tested on: co-culture of human glioblastoma astrocytoma cells and neuroblastoma cells; assay: α-synuclein-induced IL-6 secretion in co-culture; format: cell-based; details: 25 μg/ml α-synuclein (Wt, A53T, E46K), 10% bacteria supernatant, 48 hrs
Protocol: SHSY5Y cells were plated on 12 well plates at a density of 50,000 cells/well. The cells were grown in 50% MEM and 50% Nutrient Mixture F-12 Ham media supplemented with 2 mM L-Glutamine, 10% heat inactivated FBS, 100 U/ml penicillin, 100 μg/ml streptomycin. Cells on growth medium were plated on 96-well plate at 11,000 cells/well and placed in the incubator. After 2 days, media were replaced with differentiation medium (growth medium containing 1% FBS) and 10 μM retinoic acid. Differentiation medium was replaced every other day and cells were used after 7 days of differentiation. U373 were plated on 12 transwell plates (0.4 μm polyester membrane, Costar) at a density of 50,000 cells/well for 72 hrs. Cells were co-cultured together for 24 hrs before treatment in differentiation medium (growth medium containing 1% FBS without retinoic acid).
Thereafter cells were treated with 25 μg/ml α-synuclein (Wt, A53T, E46K) in the presence or absence of 10% bacteria supernatant for 48 hrs. Cell free Supernatants were collected, spun-down at 10000 g for 3 min at 4° C., aliquoted and stored at −80° C. Human IL-6 and IL-8 were measured as described above.

[2] = tested on: NFκB promoter; assay: NFκB promoter activation in Hek blue TLR4 cells (Quanti Blue); format: cell-based, human; details: 10% bacteria supernatant, 22 h
Protocol: Once grown the Human Hek blue cells were plated in 96 well plates at 25,000 cells/well in 4 replicates. One set of cells were treated with α-synuclein A53T (1 ug/mL) alone or with 10% of bacteria supernatant from MRX0029 for 22 h. The second set of cells were treated with LPS (10 ng/mL, from Salmonella enterica serotype Typhimurium, Sigma Aldrich, cat n. L6143) alone or with 10% of bacteria supernatant from MR029 for 22 h. The cells were subsequently spun down and 20 ul of the supernatant was mixed with 200 ul of Quanti Blue reagent (InvivoGen, cat n. rep-qb2), incubated for 2 h and absorbance read at 655 nm.

[3] = tested on: differentiated SHSY-5Y neuroblastoma cells; assay: ROS generated by TBHP (DCFDA fluorescence); format: cell-based, human; details: 100 uM TBHP, 10% bacteria supernatant, 2 h
Protocol: SHSY-5Y cells were plated in black flat bottom 96 well plate at density of 5000 cells/well and placed in the CO2 incubator. After 24 h, media were replaced with differentiation medium (growth medium containing 1% FBS) and 10 μM retinoic acid. Differentiation medium was replaced every other day. On Day 10 the differentiation medium was removed and cells were washed with pre-warmed PBS and stained with 10 uM DCFDA molecular probe for 20 mins in growth medium containing 1% FBS. Then cells were washed with pre-warmed PBS again and treated with 100 uM TBHP in the presence or absence of 10% bacteria supernatant for 2 h. Fluorescence intensity was measured using TECAN plate reader at Ex/Em 485/530 nm.

[4] = tested on: BALBc mice; assay: Monoamine analysis in brainstem of mice fed with bacteria (HPLC); format: in vivo, mouse; details: 1×10^9 CFU oral gavage 6 days
Protocol: Animals were allowed to habituate to their holding room for one week after arrival into the animal unit. They receive oral gavage (200 μL dose) of live biotherapeutics at a dose of 1×10^9 CFU for 6 consecutive days between 15:00 and 17:00. On day 7, the animals are decapitated, and tissues are harvested for experimentation.
Neurotransmitter concentration was analysed by HPLC on samples from the brainstem. Briefly, brainstem tissue was sonicated in 500 μl of chilled mobile phase spiked with 4 ng/40 μl of N-Methyl 5-HT (Sigma Chemical Co., UK) as internal standard. The mobile phase contained 0.1 M citric acid, 5.6 mM octane-1-sulphonic acid (Sigma), 0.1 M sodium dihydrogen phosphate, 0.01 mM EDTA (Alkem/Reagecon, Cork) and 9% (v/v) methanol (Alkem/Reagecon) and was adjusted to pH 2.8 using 4 N sodium hydroxide (Alkem/Reagecon). Homogenates were then centrifuged for 15 min at 22,000×g at 4° C. and 40 μl of the supernatant injected onto the HPLC system which consisted of a SCL 10-Avp system controller, LECD 6A electrochemical detector (Shimadzu), a LC-10AS pump, a CTO-10A oven, a SIL-10A autoinjector (with sample cooler maintained at 40 C) and an online Gastorr Degasser (ISS, UK). A reverse-phase column (Kinetex 2.6 u C18 100×4.6 mm, Phenomenex) maintained at 30° C. was employed in the separation (Flow rate 0.9 ml/min). The glassy carbon working electrode combined with an Ag/AgCl reference electrode (Shimdazu) operated a +0.8 V and the chromatograms generated were analyzed using Class-VP 5 software (Shimadzu). The neurotransmitters were identified by their characteristic retention times as determined by standard injections, which run at regular intervals during the sample analysis. The ratios of peak heights of analyte versus internal standard were measured and compared with standard injection. Results were expressed as ng of neurotransmitter per g fresh weight of tissue.

[5] = tested on: HT29-mtx epithelial, mucin-producing cell monolayers; assay: IL-8 secretion of HT29-mtx monolayers; format: cell-based; details: bacterial supernatants 24 h; compared to untreated and YCFA-treated cells
From the text: HT29-mtx epithelial, mucin-producing cell monolayers were used as an in vitro model to evaluate gut barrier disruption and immune stimulation following treatment with MRx0005 and MRx0029.

[6] = tested on: mouse Splenocytes; assay: Spleen cytokine assay ex vivo (LPS or ConA stimulation); format: in vivo
Protocol: Spleens were collected immediately in 5 mL RPMI media following sacrifice and cultured immediately. Spleen cells were first homogenised in this RPMI media, followed by 5 mins incubation with 1 ml of RBC lysis buffer (11814389001 ROCHE, Sigma). A further 10 ml of RPMI media was added, followed by 200G centrifugation for 5 mins. The supernatant was then filtered through 40 um strainer. Cells were counted and seeded (4,000,000/mL media). After 2.5 h of adaptation, cells were stimulated with lipopolysaccharide (LPS-2 μg/ml) or concanavalin A (ConA-2.5 μg/ml) for 24 h. Following stimulation, the supernatants were harvested to assess the cytokine release using Proinflammatory Panel 1 (mouse) V-PLEX Kit (Meso Scale Discovery, Maryland, USA) for TNFα, IL-10, IL-1β, Interferon γ, CXCL2 and IL6. The analyses were performed using MESO QuickPlex SQ 120, SECTOR Imager 2400, SECTOR Imager 6000, SECTOR S 600.
The ex-vivo splenocyte assay involves challenging the splenocytes (cells isolated from the spleen—a main organ involved in immune defense), with a bacterio- or viral-mimetic challenge.

In the case of Megasphaera massiliensis [MRx0029], the “α-syn-induced secretion of IL-6” value [1] is reported as “greatest”, the “activation of the NFκB promoter by LPS” value ([2]; LPS 10 ng/mL) is reported as “inhibited” and the “activation of the NFκB promoter by α-synuclein” value ([2]; α-synuclein A53T 1 ug/mL) is reported as “not inhibited”. For the same substance, the ROS production [3] was “inhibit”, the 5-HIAA in brain [4] was “slight increase” and the serotonin in brain [4] was “slight increase”. For the same substance, the “noradrenaline levels in brain” value ([4]; p=0.0507) was “increased”, the “secretion of IL-8” value [5] was “even lower secretion” and the interleukin-6 in splenocytes ([6]; challenge with LPS) was “reduction”. The interleukin-113 in splenocytes ([6]; challenge with LPS) was “reduction”, the “levels of interferon-γ in splenocytes” value ([6]; challenge with LPS) was “reduction” and the “levels of the chemoattractant CXCL1” value ([6]; splenocytes) was “increase”.
